The structures appear in SMILES notation. Bounds are passed on as bounds.

One assay deals with KRAS (aa 1-169) G12C, C51S, C80L, C118S (Homo sapiens (Human), UniProt P01116, C118S/C51S/C80L/G12C). Briefly: Biochemical functional assay: SOS1-mediated nucleotide exchange of GDP-loaded KRAS G12C, binding to GST-cRaf RBD, FRET readout. As to conditions: 3 hrs pre-incubation with compound at 24° C., SOS1, GTPyS, bound in uM. The procedure: Biochemical Functional Assay
Sequence of KRAS (aa 1-169) G12C, C51S, C80L, C118S (P01116 other isoform, or with tags, fused parts or gaps G12C/C51S/C80L/C118S): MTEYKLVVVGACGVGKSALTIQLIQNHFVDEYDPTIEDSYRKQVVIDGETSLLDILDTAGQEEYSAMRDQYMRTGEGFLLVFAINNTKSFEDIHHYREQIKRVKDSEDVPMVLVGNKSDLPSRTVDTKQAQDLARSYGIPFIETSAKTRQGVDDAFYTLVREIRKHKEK
The KRAS (aa 1-169) G12C, C51S, C80L, C118S with a His-tag was expressed, purified and loaded with GDP in house. All protein and substrate solutions were prepared in assay buffer containing 25 mM HEPES pH7.5, 10 mM MgCl2, and 0.01% Triton X-100. Purified GDP-loaded KRAS (aa 1-169) G12C, C51S, C80L, C118S protein was pre-incubated with a serially diluted compound at 24° C. for 3 hrs. Purified SOS1 (aa 564-1049) protein, GTPyS (Sigma) and GST-cRaf RBD (aa 1-149) were then added to each well and incubated at 24° C. for additional 3 hrs. […] Following the incubation, Mab Anti-6HIS-T cryptate (Cisbio) and Mab Anti GST-XL665 (Cisbio) were added and further incubated at 24° C. for 3 hrs. The binding interaction between active GTPyS KRAS G12C and GST-cRaf RBD brings the Tb and XL665 into close proximity enabling an increased FRET signal (Ex337 nm, Em665 nm/620 nm). The inhibition percentage of nucleotide exchange reaction in presence of increasing concentrations of compounds was calculated based on the ratio of fluorescence at 665 nm to that at 620 nm detected on a BMG PHERAstar FSX instrument. The IC50 value of each compound was calculated from fitting the data to the four-parameter logistic model by Dotmatics.
In the case of `C=CC(=O)N1CCN(c2nc(N3CC(N(C)C)C3)nc3cc(-c4ccccc4C)c4c(c23)OCCC4)CC1` [Compound B18, 1-(4-(8-(3-(dimethylamino)azetidin-1-yl)-5-(o-tolyl)-3,4-dihydro-2H-pyrano[2,3-f]quinazolin-10-yl)piperazin-1-yl)prop-2-en-1-one], the IC50 is over 10 µM.
The same measure, in the same setting: in the case of `C=CC(=O)N1CCN(c2ncnc3cc(-c4ccc(O)c(F)c4)c4c(c23)OCCC4)C[C@@H]1CC#N` [Compound A28, (S)-2-(1-acryloyl-4-(5-(3-fluoro-4-hydroxyphenyl)-3,4-dihydro-2H-pyrano[2,3-f]quinazolin-10-yl)piperazin-2-yl)acetonitrile] it was over 10 µM.

Staying with this assay, now noted: 3 hrs pre-incubation with compound at 24° C., SOS1, GTPyS, inhibition of nucleotide exchange.
With `C=C(F)C(=O)N1CCN(c2nc(N3CCCC(N(C)C)C3)nc3cc(-c4cccc5cccc(Cl)c45)c4c(c23)OCCC4)C[C@@H]1CC#N` (stereo partly drawn) [Compound B74, 2-((2S)-4-(5-(8-chloronaphthalen-1-yl)-8-(3-(dimethylamino)piperidin-1-yl)-3,4-dihydro-2H-pyrano[2,3-f]quinazolin-10-yl)-1-(2-fluoroacryloyl)piperazin-2-yl)acetonitrile], the IC50 is 0.837 µM.
Still for that read-out and setting: the value for `C=CC(=O)N1CCN(c2ncnc3cc(-c4cccc5ccccc45)c4c(c23)OCCC4)CC1` [Compound A12, 1-(4-(5-(naphthalen-1-yl)-3,4-dihydro-2H-pyrano[2,3-f]quinazolin-10-yl)piperazin-1-yl)prop-2-en-1-one] was 1.66 µM; that for `C=C(F)C(=O)N1CCN(c2nc(OC3CN(C)C3)nc3cc(-c4cccc5cccc(Cl)c45)c4c(c23)OCCC4)C[C@@H]1CC#N` [Compound B64, (S)-2-(4-(5-(8-chloronaphthalen-1-yl)-8-((1-methylazetidin-3-yl)oxy)-3,4-dihydro-2H-pyrano[2,3-f]quinazolin-10-yl)-1-(2-fluoroacryloyl)piperazin-2-yl)acetonitrile] was 0.247 µM.
As to `C=CC(=O)N1CCN(c2ncnc3cc(-c4c(O)cccc4F)c4c(c23)OC(C)(C)CC4)CC1` [Compound A2, 1-(4-(5-(2-fluoro-6-hydroxyphenyl)-2,2-dimethyl-3,4-dihydro-2H-pyrano[2,3-f]quinazolin-10-yl)piperazin-1-yl)prop-2-en-1-one], the IC50 came to 2.12 µM.
The same measure, in the same setting: in the case of `C=C(F)C(=O)N1CCN(c2nc(OC[C@@H]3CCCN3C)nc3cc(-c4c(Cl)c(C)cc5[nH]ncc45)c4c(c23)OCCC4)C[C@@H]1CC#N` (single isomer, unassigned; atropisomer1) [Compound B12] it was 0.0046 µM.
On the same count and under the same terms, the value for `C=C(F)C(=O)N1CCN(c2nc(OC[C@@H]3CCCN3C)nc3cc(-c4cccc(C(F)(F)F)c4)c4ccoc4c23)C[C@@H]1CC#N` [Compound B87, 2-((S)-1-(2-fluoroacryloyl)-4-(7-(((S)-1-methylpyrrolidin-2-yl)methoxy)-4-(3-(trifluoromethyl)phenyl)furo[2,3-f]quinazolin-9-yl)piperazin-2-yl)acetonitrile] was 1.52 µM.
On to `C=C(F)C(=O)N1CCN(c2nc(OC[C@@H]3CCCN3C)nc3cc(-c4ccc(C)cc4C(F)(F)F)c4ccoc4c23)C[C@@H]1CC#N` [Compound B77, 2-((S)-1-(2-fluoroacryloyl)-4-(4-(4-methyl-2-(trifluoromethyl)phenyl)-7-(((S)-1-methylpyrrolidin-2-yl)methoxy)furo[2,3-f]quinazolin-9-yl)piperazin-2-yl)acetonitrile], for which the IC50 was 0.535 µM.
On the same count and under the same terms, in the case of `C=CC(=O)N1CCN(c2nc(N3CC(N(C)C)C3)nc3cc(-c4cccc5ccccc45)c4c(c23)OCCC4)CC1` [Compound B10, 1-(4-(8-(3-(dimethylamino)azetidin-1-yl)-5-(naphthalen-1-yl)-3,4-dihydro-2H-pyrano[2,3-f]quinazolin-10-yl)piperazin-1-yl)prop-2-en-1-one] it was 0.235 µM; in that of `C=CC(=O)N1CCN(c2nc(N3CC(N(C)C)C3)nc3cc(-c4c(Cl)c(C)cc5[nH]ncc45)c4c(c23)OCCC4)C[C@@H]1CC#N` [Compound B4, 2-((2S)-1-acryloyl-4-(5-(5-chloro-6-methyl-1H-indazol-4-yl)-8-(3-(dimethylamino)azetidin-1-yl)-3,4-dihydro-2H-pyrano[2,3-f]quinazolin-10-yl)piperazin-2-yl)acetonitrile], 0.0047 µM.
On to `C=CC(=O)N1CCN(c2ncnc3cc(-c4c(Cl)c(C)cc5[nH]ncc45)c4c(c23)OCCC4)C[C@@H]1CC#N` [Compound A20, 2-((2S)-1-acryloyl-4-(5-(5-chloro-6-methyl-1H-indazol-4-yl)-3,4-dihydro-2H-pyrano[2,3-f]quinazolin-10-yl)piperazin-2-yl)acetonitrile], for which the IC50 was determined as 0.0149 µM.
Consider `C=CC(=O)N1CCN(c2nc(OC[C@@H]3CCCN3C)nc3cc(-c4c(Cl)cccc4Cl)c4ccoc4c23)CC1` [Compound B59, (S)-1-(4-(4-(2,6-dichlorophenyl)-7-((1-methylpyrrolidin-2-yl)methoxy)furo[2,3-f]quinazolin-9-yl)piperazin-1-yl)prop-2-en-1-one], for which the IC50 was 0.745 µM.
Still for that read-out and setting: the value for `C=C(F)C(=O)N1CCN(c2nc(OC[C@@H]3CCCN3C)nc3cc(-c4ccccc4F)c4c(c23)OCCC4)C[C@@H]1CC#N` [Compound B31, 2-((S)-1-(2-fluoroacryloyl)-4-(5-(2-fluorophenyl)-8-(((S)-1-methylpyrrolidin-2-yl)methoxy)-3,4-dihydro-2H-pyrano[2,3-f]quinazolin-10-yl)piperazin-2-yl)acetonitrile] was 0.984 µM; that for `C=CC(=O)N1CCN(c2ncnc3cc(-c4cnc(N)cc4C(F)(F)F)c4c(c23)OCCC4)C[C@@H]1CC#N` [Compound A22, (S)-2-(1-acryloyl-4-(5-(6-amino-4-(trifluoromethyl)pyridin-3-yl)-3,4-dihydro-2H-pyrano[2,3-f]quinazolin-10-yl)piperazin-2-yl)acetonitrile] was 0.256 µM; that for `C=C(F)C(=O)N1CCN(c2nc(OC3CCCC3N(C)C)nc3cc(-c4cccc5cccc(Cl)c45)c4c(c23)OCCC4)C[C@@H]1CC#N` (stereo partly drawn) [Compound B50, 2-((2S)-4-(5-(8-chloronaphthalen-1-yl)-8-((2-(dimethylamino)cyclopentyl)oxy)-3,4-dihydro-2H-pyrano[2,3-f]quinazolin-10-yl)-1-(2-fluoroacryloyl)piperazin-2-yl)acetonitrile] was 0.289 µM.
The same measure, in the same setting: the value for `C=CC(=O)N1CCN(c2ncnc3cc(-c4c(C)cccc4C)c4c(c23)OCCC4)C[C@@H]1CC#N` [Compound A24, (S)-2-(1-acryloyl-4-(5-(2,6-dimethylphenyl)-3,4-dihydro-2H-pyrano[2,3-f]quinazolin-10-yl)piperazin-2-yl)acetonitrile] was 0.262 µM.
Same read-out and setting: in the case of `C=C(F)C(=O)N1CCN(c2nc(OC[C@H]3C[C@@H](OC)CN3C)nc3cc(-c4cccc5cccc(Cl)c45)c4c(c23)OCCC4)C[C@@H]1CC#N` (single isomer, unassigned) [Compound B106] it was 0.00954 µM; in that of `C=C(F)C(=O)N1CCN(c2nc(OCC3C[C@@H](OC)CN3C)nc3cc(-c4cccc5cccc(Cl)c45)c4c(c23)OCCC4)C[C@@H]1CC#N` (single isomer, unassigned) [Compound B96], 0.14 µM; in that of `C=C(F)C(=O)N1CCN(c2nc(OC[C@@H]3COCCN3C)nc3cc(-c4cccc5cccc(Cl)c45)c4c(c23)OCCC4)C[C@@H]1CC#N` [Compound B72, 2-((S)-4-(5-(8-chloronaphthalen-1-yl)-8-(((S)-4-methylmorpholin-3-yl)methoxy)-3,4-dihydro-2H-pyrano[2,3-f]quinazolin-10-yl)-1-(2-fluoroacryloyl)piperazin-2-yl)acetonitrile], 0.194 µM.
As for `C=C(F)C(=O)N1CCN(c2nc(OC[C@@H]3CCCN3C)nc3cc(-c4c(O)cccc4F)c4ccoc4c23)C[C@@H]1CC#N` [Compound B39, 2-((2S)-4-(4-(2-fluoro-6-hydroxyphenyl)-7-(((S)-1-methylpyrrolidin-2-yl)methoxy)furo[2,3-f]quinazolin-9-yl)-1-(2-fluoroacryloyl)piperazin-2-yl)acetonitrile], the half-inhibitory concentration (IC50) came out at 1.04 µM.
Same read-out and setting: in the case of `C=CC(=O)N1CCN(c2ncnc3cc(-c4cccc5ccccc45)c4c(c23)OC(C)(C)CC4)CC1` [Compound A1, 1-(4-(2,2-dimethyl-5-(naphthalen-1-yl)-3,4-dihydro-2H-pyrano[2,3-f]quinazolin-10-yl)piperazin-1-yl)prop-2-en-1-one] it was 5.5 µM.
As to `C=CC(=O)N1CCN(c2nc(OC[C@@H]3CCCN3C)nc3cc(-c4cccc5cccc(Cl)c45)c4ccoc4c23)[C@@H](C)C1` [Compound B49, 1-((S)-4-(4-(8-chloronaphthalen-1-yl)-7-(((S)-1-methylpyrrolidin-2-yl)methoxy)furo[2,3-f]quinazolin-9-yl)-3-methylpiperazin-1-yl)prop-2-en-1-one], the IC50 came out at 0.128 µM.
For `C=C(F)C(=O)N1CCN(c2nc(OC[C@@H]3CCN(C)C3)nc3cc(-c4cccc5cccc(Cl)c45)c4c(c23)OCCC4)C[C@@H]1CC#N` [Compound B75, 2-((S)-4-(5-(8-chloronaphthalen-1-yl)-8-(((R)-1-methylpyrrolidin-3-yl)methoxy)-3,4-dihydro-2H-pyrano[2,3-f]quinazolin-10-yl)-1-(2-fluoroacryloyl)piperazin-2-yl)acetonitrile], the IC50 is 0.044 µM.

For orientation: IC50 means the midpoint of a concentration-inhibition curve.
